In PubChem BioAssay (NCI) one finds GI50 and TGI data, which are given here for twelve molecules.

“And” between values parts separate entries of the source, which are not always exact repeats. Identical values can stand only once.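 Compound exposure: 48 hours, 5 concentrations, 96-well plates. GI50 marks 50% less growth. TGI is the concentration that stops growth completely.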 A value given as a limit tells only on which side of the number the result lay.

What all share (assay): NCI tumour cell line growth inhibition, 48 h
Assay [1] deals with 786-0 renal.
The test system of assay [2] is ACHN renal.
The test system of assay [3] is CCRF-CEM leukemia.
Assay [4] relates to HL-60(TB) leukemia.
Assay [5] deals with HOP-62 NSCLC.
In assay [6] the test system is HOP-92 NSCLC.
Assay [7] deals with MOLT-4 leukemia.
For assay [8], the system named is NCI-H226 lung.
Assay [9] concerns OVCAR-3 ovarian.
For assay [10], the system named is SF-539 CNS.

For the molecule `O=C(Nc1ccc(Cl)cc1)c1cc(-c2ccc(Cl)cc2)c2sc(=O)[nH]c2n1`, the GI50 in [1] was 2.64 µM; in assay [2], 2.27 µM; in assay [3], 2.5 µM; in assay [4], 1.27 µM; in assay [5] it was 2.58 µM; in assay [6], 0.526 µM. Moreover, the GI50 is 2.52 µM in assay [7], 2.26 µM in assay [8], 2.32 µM in assay [9] and 2.43 µM in assay [10]. For the same molecule, the TGI in assay [1] was 20.6 µM; in assay [2], 8.89 µM; in [3], 40.3 µM; in assay [4], 6.68 µM; in assay [5], 8.85 µM; in assay [6], 3.94 µM. Moreover, the TGI in assay [7] amounted to 11.8 µM; in assay [8] it was 9.18 µM; in assay [9], 7.45 µM; in assay [10], 11.6 µM.
With `Cn1cc(-c2cnc3ccc4ccc(CS(=O)(=O)NCc5ccccn5)cc4c(=O)c3c2)cn1`, the GI50 was 27 µM in assay [1]; 16.4 µM in assay [2]; 9.08 µM in assay [3]; 9.15 µM in assay [4]; 17.6 µM in assay [5]; 6.19 µM in assay [6]. For the same molecule, the GI50 in assay [7] is 9.09 µM; in assay [8] it was 14.8 µM; in assay [9], 14.6 µM; in [10], 16.9 µM. In addition, the TGI in assay [1] was over 100 µM; in [2] it was over 100 µM; in assay [3], over 93.8 µM; in assay [4], 41.8 µM; in assay [5], over 100 µM; in [6], over 77.3 µM. Also, the TGI came to 52.5 µM in assay [7], 36 µM in assay [8], 45.8 µM in assay [9] and 41.2 µM in [10].
`CCN(CCCl)CCCNc1c2ccccc2nc2ccc(OC)cc12`: the GI50 in assay [1] is 102 µM; in assay [3] it was 67.6 µM; in assay [4], 175 µM; in [5] it was 200 µM; in assay [6] it was 180 µM; in [7], 15.7 µM. Also, the GI50 in assay [8] was 580 µM; in [9], 119 µM; in [10], 421 µM. In [2], the TGI stood at 1.34 µM.
Regarding `NC1=NC(c2ccc(Cl)cc2)C2=C(N1)/C(=C/c1ccc(Cl)cc1)CCC2` (stereo not drawn), the GI50 in assay [1] was 9.42 µM; in [2], 18 µM; in [3] it was 5.95 µM; in assay [4] it was 12.3 µM; in [5], 15 µM; in [6], 14.2 µM. In addition, the GI50 in [7] was 9.47 µM; in assay [8], 4.25 µM; in assay [9] it was 5.76 µM; in assay [10], 19.9 µM. Also, the TGI in assay [1] was 29.7 µM; in assay [2] it was over 66.2 µM; in [3] it was over 81.5 µM; in [4], 45.8 µM; in [5] it was 53 µM; in assay [6], 40.5 µM. Further, the TGI in assay [7] was 57 µM; in [8], 11.8 µM; in assay [9], 15.4 µM; in assay [10] it was over 78 µM.
For `N#CC1=C(N)NC(=O)NC12Nc1ccccc1S2` (stereo not drawn), the GI50 in assay [1] is 19.4 µM; in assay [2], 32.2 µM; in assay [3], over 42 µM; in assay [4], 34.5 µM; in assay [5] it was 23.1 µM; in [6], 91.3 µM. Besides, the GI50 in assay [7] is over 48.3 µM; in [8], 14.4 µM; in [9], 26.8 µM; in assay [10] it was 20.8 µM. For the same molecule, the TGI in assay [1] was 49.6 µM; in assay [2] it was over 100 µM; in assay [3] it was over 67.6 µM; in [4], over 100 µM; in assay [5], 56.7 µM; in [6], over 100 µM. The TGI is over 100 µM in [7], 36.9 µM in [8], over 59.9 µM in assay [9] and over 54.9 µM in assay [10].
As for `NC(=O)C(c1ccccc1)N1CCOCC1` (stereo not drawn), the TGI in assay [1], in assay [2], in assay [3], in assay [4], in assay [5] and in assay [6] was over 100 µM in each case. Also, the TGI in assay [7], in assay [8], in assay [9] and in assay [10] was over 100 µM each time.
With `C#Cc1c(C(N)=O)ncn1C1OC(COP(=O)(OCc2ccc([N+](=O)[O-])o2)N(C)CCCCCl)C(O)C1O` (stereo not drawn), the GI50 is 36.3 µM in [1]; 45 µM in assay [2]; 21.9 µM in [3]; over 100 µM in assay [4]; 49.3 µM in assay [5]; 51.2 µM in assay [6]. Moreover, the GI50 in [7] was 83.7 µM; in assay [8], over 100 µM; in assay [9] it was 15.1 µM; in assay [10], 19.7 µM. Besides, the TGI in [1], in assay [2], in [3], in assay [4], in assay [5] and in assay [6] was over 100 µM each time. In addition, the TGI is over 100 µM in assay [7], over 100 µM in [8], 63.5 µM in assay [9] and over 100 µM in assay [10].
With `Cc1cc(Nc2ncnc3ccc(NC4=NC(C)(C)CO4)cc23)ccc1Oc1ccn2ncnc2c1`, the GI50 is 20.1 µM and > 10 µM in [1]; 4.48 µM and 9.46 µM in assay [2]; 15.6 µM and > 10 µM in assay [3]; 21 µM and > 10 µM in assay [4]; 17.6 µM and > 10 µM in assay [5]; 3.69 µM and 4.24 µM in assay [6]. The GI50 in [7] is 14.6 µM and > 10 µM; in [8] it was 16.6 µM and > 10 µM; in assay [9], 14.4 µM and > 10 µM; in assay [10] it was 15.6 µM and > 10 µM. Besides, the TGI is over 81.5 µM in assay [1]; over 100 µM in assay [2]; over 95.8 µM in assay [3]; 46.1 µM and > 10 µM in assay [4]; 45.7 µM and > 10 µM in assay [5]; 26.9 µM and > 10 µM in assay [6]. Also, the TGI was 42.2 µM and > 10 µM in assay [7]; over 90.2 µM in [8]; 52.6 µM and > 10 µM in assay [9]; 31.2 µM and > 10 µM in assay [10].
As to `CCSC1=C(C)N(C=NC(C)(C)C)CC1`, the TGI in assay [1], in assay [2], in assay [3], in assay [4], in [5] and in assay [6] was over 100 µM throughout. Further, the TGI in [7], in assay [8], in assay [9] and in assay [10] was over 100 µM in each case.
As for `CC(=O)OCC1OC(OC2CC3C(C)(C)C(O)CC[C@]3(C)C3CCC45CC4(CC[C@H]5C(C)CC(O)C4OC4(C)C)[C@]23C)C(O)C(O)C1O` (stereo partly drawn), the GI50 in assay [1] was 5.67 µM; in [2] it was 19.2 µM; in assay [3], 2.56 µM; in assay [4], 1.73 µM; in assay [5], 14.2 µM; in assay [7] it was 3.01 µM. Further, the GI50 in assay [9] was 4.26 µM; in assay [10] it was 6.32 µM. The TGI is 14.9 µM and 18.9 µM in assay [1]; 15.5 µM and 33.6 µM in [2]; 6.74 µM and 6.72 µM in [3]; 3.67 µM and 4.18 µM in [4]; 19.1 µM and 29.5 µM in assay [5]; 14.6 µM in assay [6]. Moreover, the TGI in [7] is 2.34 µM and 7.26 µM; in assay [8] it was 16.1 µM; in assay [9], 12.5 µM and 17.6 µM; in assay [10] it was 15.3 µM and 18.7 µM.
For the molecule `O=C(N/N=C/c1ccc([N+](=O)[O-])cc1)c1ccc2nc(-c3ccc(Cl)cc3)[nH]c2c1`, the GI50 in [1] is 3.92 µM; in assay [2] it was 4.36 µM; in assay [3], 0.591 µM; in [4], 0.797 µM; in [5] it was 6.42 µM; in assay [6] it was 0.985 µM. Further, the GI50 in assay [7] was 0.421 µM; in assay [8] it was 5.03 µM; in [9], 3.25 µM; in [10], 2.73 µM. Further, the TGI in [1] came to 15.7 µM; in assay [2], 31.9 µM; in assay [3], 17.7 µM; in assay [4] it was 5.73 µM; in assay [5], 30.8 µM; in [6], 7.52 µM. Besides, the TGI in assay [7] turned out to be 3.85 µM; in assay [8], 31.2 µM; in assay [9], 8.23 µM; in assay [10], 10.1 µM.
Regarding `Cc1cc(C)c(O)c(CN(C)Cc2cc(Cl)cc(Cl)c2O)c1`, the GI50 in assay [1] is 9.38 µM; in [2], 4.73 µM; in assay [3], 2.7 µM; in assay [4], 4 µM; in assay [5], 5.46 µM; in assay [6], 3.07 µM. The GI50 in assay [7] is 3.45 µM; in assay [8], 6.56 µM; in assay [9], 2.4 µM; in assay [10] it was 6.43 µM. In addition, the TGI is 28.6 µM in assay [1]; 24 µM in assay [2]; 14.8 µM in assay [3]; 33 µM in assay [4]; 18.3 µM in assay [5]; 13.3 µM in [6]. The TGI in assay [7] was determined as 34.7 µM; in assay [8], 23.1 µM; in assay [9], 8.16 µM; in [10] it was 25.1 µM.
